The values below come from ChEMBL document CHEMBL3244099, “Various 5-substituted and 2,5-disubstituted 1,3-dioxanes, a new class of analgesic agents” (1977).

Type in all cases: functional
One experiment is filed under the species Mus musculus. As to the kind of experiment: animal or person.
Experiment [1] has as its system Rattus norvegicus. In words: Analgesic activity in sc dosed rat assessed as dose required for 2 times increase in reaction time after 30 mins by tail jerk test relative to control.
Experiment [2] relates to Rattus norvegicus. As to the kind of experiment: Analgesic activity in sc dosed rat assessed as dose required for 2 times increase in reaction time after 15 mins by tail jerk test relative to control.
The mark [3] stands for this setting: Mus musculus, sc, read-out: ED50.

Description for Mus musculus: Analgesic activity in sc dosed mouse assessed as inhibition of acetic acid-induced writhing after 15 to 30 mins

On to `CN1CC[C@]23c4c5ccc(O)c4O[C@H]2[C@@H](O)C=C[C@H]3[C@H]1C5.CN1CC[C@]23c4c5ccc(O)c4O[C@H]2[C@@H](O)C=C[C@H]3[C@H]1C5.O=S(=O)(O)O`, for which the ED50 (usually the dose that gives a 50% effect, or the effect in half of the subjects) in the experiment filed under Mus musculus (setting [3]) was found to be 0.97 mg/kg.
Consider `COc1ccc2c3c1O[C@H]1[C@@H](O)C=C[C@H]4[C@@H](C2)N(C)CC[C@@]341.O=S(=O)(O)O`, for which the ED50 in the experiment listed under Mus musculus (setting [3]) was found to be 6.7 mg/kg. Further, the ED with Rattus norvegicus [1] was 4.2 mg/kg.
As for `COc1cccc(C(C2COCOC2)N(C)C)c1.O=C(O)/C=C\C(=O)O` (stereo not given), in the experiment listed under Mus musculus (setting [3]), the median effective dose (ED50) was over 50 mg/kg.
Still for that read-out and setting: as for `CN(C)C(c1cccc(Cl)c1)C1COCOC1.O=C(O)/C=C\C(=O)O` (stereo not given), the figure is over 50 mg/kg; as for `CN(C)C(c1ccc(Cl)cc1)C1COCOC1.Cl` (stereo not given), 32 mg/kg.
For `CN(C)C(c1ccc(Cl)cc1Cl)C1COCOC1.Cl` (stereo not given), in the experiment filed under Mus musculus (setting [3]), the median effective dose (ED50) was over 50 mg/kg.
Still for that read-out and setting: as for `CN(C)C(c1ccc(F)cc1)C1COCOC1.Cl` (stereo not given), the figure is 30 mg/kg; as for `COc1ccc(C(C2COCOC2)N(C)C)cc1.Cl` (stereo not given), over 50 mg/kg.
Turning to `Cc1ccccc1C(C1COCOC1)N(C)C.Cl` (stereo not given), the median effective dose (ED50) in the experiment listed under Mus musculus (setting [3]) turned out to be 39 mg/kg.
The same measure, in the same setting: as for `Cc1cccc(C(C2COCOC2)N(C)C)c1.O=C(O)/C=C\C(=O)O` (stereo not given), the figure is over 50 mg/kg.
For `Cc1ccc(C(C2COCOC2)N(C)C)cc1.O=C(O)/C=C\C(=O)O` (stereo not given), the median effective dose (ED50) in the experiment filed under Mus musculus (setting [3]) came out at 20 mg/kg. In the experiment with Rattus norvegicus [2], the ED turned out to be 7.9 mg/kg.
Consider `CN(C)C(c1cccc(OCc2ccccc2)c1)C1COCOC1.Cl` (stereo not given), for which the median effective dose (ED50) in the experiment listed under Mus musculus (setting [3]) was over 50 mg/kg.
On to `CN(C)C(c1ccc(OCc2ccccc2)cc1)C1COCOC1.Cl` (stereo not given), for which the ED50 in the experiment filed under Mus musculus (setting [3]) is over 50 mg/kg.
For `CN(C)C(c1ccccn1)C1COCOC1.O=C(O)/C=C\C(=O)O` (stereo not given), the median effective dose (ED50) in the experiment listed under Mus musculus (setting [3]) was over 50 mg/kg.
As for `CN(C)C(c1ccncc1)C1COCOC1.O=C(O)/C=C\C(=O)O` (stereo not given), the ED50 in the experiment listed under Mus musculus (setting [3]) is over 50 mg/kg.
For `Cl.Clc1ccc(C(C2COCOC2)N2CCCCC2)cc1` (stereo not given), the median effective dose (ED50) in the experiment listed under Mus musculus (setting [3]) was found to be 33 mg/kg.
Turning to `CCN(CC)C(c1ccccc1)C1COCOC1.[O-][Cl+3]([O-])([O-])O` (stereo not given), the ED50 in the experiment listed under Mus musculus (setting [3]) is over 50 mg/kg.
Take `Cl.c1ccc(C(C2COCOC2)N2CCCC2)cc1` (stereo not given): in the experiment listed under Mus musculus (setting [3]), the 50% effective dose (ED50) was over 50 mg/kg.
The same measure, in the same setting: in the case of `Cl.c1ccc(C(C2COCOC2)N2CCOCC2)cc1` (stereo not given) it was over 50 mg/kg.
Still for that read-out and setting: as for `CN(C)C(c1cccc(O)c1)C1COCOC1.Cl` (stereo not given), the figure is over 50 mg/kg.
With `CN(C)C(c1ccc(O)cc1)C1COCOC1.Cl` (stereo not given), in the experiment listed under Mus musculus (setting [3]), the median effective dose (ED50) was 13 mg/kg. For the same molecule, the ED in the experiment with Rattus norvegicus [2] was 12 mg/kg.
In the same order, the values of `CC(=O)Oc1ccc(C(C2COCOC2)N(C)C)cc1.Cl` (stereo not given) are 11 mg/kg and 7.3 mg/kg.
Regarding `CNC(c1ccccc1)C1COCOC1.Cl` (stereo not given), the ED50 in the experiment filed under Mus musculus (setting [3]) was 21 mg/kg.
Still for that read-out and setting: in the case of `C=CCN(C)C(c1ccccc1)C1COCOC1.Cl` (stereo not given) it was over 50 mg/kg.
Same read-out and setting: in the case of `Cl.NC(c1ccccc1)C1COCOC1` (stereo not given) it was over 50 mg/kg.
Regarding `CC1OCOCC1C(c1ccccc1)N(C)C.Cl` (stereo not given), the median effective dose (ED50) in the experiment listed under Mus musculus (setting [3]) was found to be 32 mg/kg.
On to `CN(C)C(c1ccccc1)C1(C)COCOC1.Cl` (stereo not given), for which the median effective dose (ED50) in the experiment filed under Mus musculus (setting [3]) was over 50 mg/kg.
In the case of `CN(C)C(c1ccccc1Cl)C1COCOC1.Cl` (stereo not given), the ED50 in the experiment filed under Mus musculus (setting [3]) amounted to 48 mg/kg.
Take `CN(C)C(c1cccnc1)C1COCOC1.Cl` (racemic): the ED50 in the experiment listed under Mus musculus was 6.1 mg/kg. The ED with Rattus norvegicus [2] is 9.6 mg/kg.
For `CC1OCC(C(c2ccccc2)N(C)C)CO1` (racemic), in the experiment filed under Mus musculus (setting [3]), the median effective dose (ED50) is 3.9 mg/kg. Besides, the ED in the experiment on Rattus norvegicus [2] amounted to 6.3 mg/kg.
On to `CCC1OCC(C(c2ccccc2)N(C)C)CO1` (racemic), for which the 50% effective dose (ED50) in the experiment listed under Mus musculus (setting [3]) worked out at 19 mg/kg.
As for `CC(C)C1OCC(C(c2ccccc2)N(C)C)CO1.Cl` (racemic), the ED50 in the experiment filed under Mus musculus (setting [3]) was over 50 mg/kg.
The same measure, in the same setting: as for `CN(C)C(c1ccccc1)C1COC(C2CCCCC2)OC1.Cl` (racemic), the figure is over 50 mg/kg.
Same read-out and setting: as for `CN(C)C(c1ccccc1)C1COC(C2CCCC2)OC1` (racemic), the figure is 45 mg/kg.
On the same count and under the same terms, as for `CCC1(c2ccccc2)OCC(C(c2ccccc2)N(C)C)CO1.O=C(O)/C=C\C(=O)O` (racemic), the figure is over 50 mg/kg.
Consider `Cc1ccc(C(C2COC(C)OC2)N(C)C)cc1.Cl` (racemic), for which the ED50 in the experiment listed under Mus musculus (setting [3]) turned out to be 2.9 mg/kg. Also, in the experiment with Rattus norvegicus [2], the ED was found to be 7.9 mg/kg.
In the experiment listed under Mus musculus, `CN(C)C(c1ccccc1)C1COCOC1.Cl` (racemic) came in with a median effective dose (ED50) of 14 mg/kg. In the experiment on Rattus norvegicus [2], the ED worked out at 4 mg/kg.
The corresponding values for `CN(C)C(c1ccccc1)C1COCOC1.Cl` (stereo in doubt; (+)-4a) are over 50 mg/kg and 69 mg/kg.
The corresponding values for `CN(C)C(c1cccnc1)C1COCOC1.Cl` (stereo in doubt; (+)-4o) are over 50 mg/kg and over 80 mg/kg.
In the same order, the values of `CN(C)C(c1ccccc1)C1COCOC1.Cl` (stereo in doubt; (-)-4a) are 6.2 mg/kg and 2.4 mg/kg.
The molecule `CN(C)C(c1cccnc1)C1COCOC1.Cl` (stereo in doubt; (-)-4o) displayed an ED50 in the experiment listed under Mus musculus of 3.6 mg/kg. In addition, the ED with Rattus norvegicus [2] came to 5.7 mg/kg.
Take `CCOC(=O)C1(c2ccccc2)CCN(C)CC1.Cl` [MEPERIDINE HYDROCHLORIDE]: the ED50 in the experiment listed under Mus musculus (setting [3]) was determined as 2.9 mg/kg. In addition, the ED with Rattus norvegicus [2] was 1.9 mg/kg.
